Tested on: human serum proteins
Assay: Binding to human serum proteins, 30 min incubation
Assay type: in vitro ADME
Conditions: 37 °C
Protocol: The lipophilicity (LogDoctanol/PBS) and protein binding of the four radiotracers in human serum were determined as described in the Supplemental Data. […]
minimum conjugate amount. Briefly, the Ge-68/Ga-68 generator was eluted with 5 mL HCl 0.1 N and the eluate (~300 MBq) was loaded onto a cation exchange column (Strata-XC, Phenomenex). Gallium-68 was eluted with 700 μL of a mixture of 5.5 M NaCl / 0.1 M HCl (prepared by mixing 0.530 mL of ultrapure 30% aq. HCl and 49.5 mL of 5.5M NaCl) directly into a vial containing 400 μL of 1.8 M sodium acetate buffer (pH 4.3) for DOTA.SA.FAPi or 2 mL 1.45 M HEPES (pH 4.1) for DOTAGA.(SA.FAPi)2, 2 mL H2O (only in case of DOTA.SA.FAPi), 200 μL of EtOH, and 20 μg (approximately 20 nmol) of the conjugate, followed by Sep-Pak C-18 purification to remove uncomplexed gallium-68. The purified [68Ga]Ga-DOTA.SA.FAPi and [68Ga]Ga-DO,TAGA.(SA.FAPi)2 were eluted in 2.7 mL of a solution of 12% EtOH in PBS. […]
The 68Ga- and 177Lu-labelled radiotracers (20 pmol; 0.3 MBq) were incubated with commercially available human serum (0.5 mL) at 37 °C for 30 min. […] After careful separation of the two phases, the respective activities were measured in a gamma counter, followed by determination of the percentage of the radiotracer that bound […]

| Percentage of human serum protein bound activity | SMILES |
| --- | --- |
| 10.6 ± 3.9% | N#C[C@@H]1CC(F)(F)CN1C(=O)CNC(=O)c1ccnc2ccc(OCCCCNc3c(NCCNC(=O)CN4CCN(CC(=O)[O-])CCN(CC(=O)[O-])CCN(CC(=O)[O-])CC4)c(=O)c3=O)cc12.[68Ga+3] [[^68Ga]Ga-DOTA.SA.FAPi] |
| 9.9 ± 4.4% | N#C[C@@H]1CC(F)(F)CN1C(=O)CNC(=O)c1ccnc2ccc(OCCCCNc3c(NCCNC(=O)CN4CCN(CC(=O)[O-])CCN(CC(=O)[O-])CCN(CC(=O)[O-])CC4)c(=O)c3=O)cc12.[177Lu+3] [[^177Lu]Lu-DOTA.SA.FAPi] |
